# Earlier results, collected in patent publication US20250114367A1, “METHOD OF TREATING HAIR LOSS DISORDERS” (Sun Pharmaceutical Industries, Inc., priority 2023, published 2025).
# System: subjects with AA
# Conditions: ritlecitinib 50 mg; up to 48 weeks; FIG. 13C; cited from earlier work
compound,measurement,value
C=CC(=O)N1C[C@H](Nc2ncnc3[nH]ccc23)CC[C@@H]1C [ritlecitinib],proportion of participants achieving SALT ≤20,≤ 50%
